From patent publication US20140378424A1, “ESTROGEN RECEPTOR MODULATORS FOR REDUCING BODY WEIGHT” (RosScreening, Inc., priority 2011, published 2014)

How the values were obtained:
[1] = Example 3: 8 week weight loss experiment in obese mice, compound in drinking water or feed; type: in vivo, male C57BL6/J mice; details: for body weight in comparison to controls / body weight reduction from controls: 8 weeks; for fat tissue mass (NMR body composition analysis): after 8 weeks
Protocol: (§1) An 8 week long weight loss experiment was performed on obese 18 week old male C57BL6/J mice having been on a high fat diet for approximately 12 weeks. The estrogen modulating compound treatment groups (hexestrol, clomiphene, raloxifene, and tamoxifen) were either provided in drinking water or feed. Obese mice were allocated into cohorts of 6 mice per compound per treatment type and housed at a density of 1 mouse per cage. Water treatment group mice were placed on a high fat diet ad libitum with compound provided via drinking water. Each feed treatment group received a specially formulated high fat diet containing their corresponding compound ad libitum and normal drinking water. Weight measurements of each mouse were taken twice per week over 8 weeks. Food intake per mouse per day was also recorded.
(§2) At the end of 8 weeks mice underwent a body tissue composition analysis by Echo MRI (NMR), an intraperitoneal glucose tolerance test (IPGTT), and an oral glucose tolerance test (OGTT). For IPGTT, each mouse received an intraperitoneal glucose solution injection of 1 g glucose/kg body weight. Serum glucose concentration was measured pre-injection, and 30, 60, and 90 minutes post-injection. For OGTT, each mouse received an oral glucose solution dose of 1 g glucose/kg body weight. Serum glucose was measured before the oral dose, and 15, 30, 90, and 120 minutes after oral dose.

[2] = Example 1 Phase 1: prevention of weight gain in lean mice placed on high fat diet, drug via drinking water for 8 weeks; type: in vivo, Male C57BL6/J mice; details: for lean mouse body weight accumulation over the 8 week period: drug in drinking water, vs control mice
Protocol: (§3) Male C57BL6/J mice were tested as follows. The animal room was lighted entirely with artificial fluorescent lighting on controlled 12 hr light/dark cycle (6 a.m. to 6 p.m. light). The normal temperature and relative humidity ranges in the animal rooms were maintained at 22±4° C. and 50±15%, respectively. The animal room was set for 15 air exchanges per hour. Filtered tap water acidified to a pH of 2.5 to 3.0 was provided ad libitum. High fat diet was provided ad libitum.
After a 1 week acclimation, the mice were grouped into cohorts of 6 mice each. 6 DIO (diet induced obesity) and 6 lean C57BL6/J mice were used as naïve controls. Each drug was administered via drinking water for 8 weeks. The drug containing drinking water solutions were made fresh weekly. Water intake, food intake, and body weights were recorded weekly.
This experiment was run in two phases, Phase 1 (prevention of weight gain in lean mice) and Phase 2 (weight loss in obese mice). In the phase 1 experiment, the mice were placed on high fat diet at the same time administration of the drug was initiated. In the phase 2 experiment, drug treatment was initiated on 18 week old mice, which were previously on a high fat diet for approximately 12 weeks. In addition to the measurements noted above, a single DEXA Scan analysis was ran on the mice in Phase 2. After treatment, mice underwent body tissue composition analysis by Echo MRI (NMR) to measure their fat and lean mass content.
Body weight change was calculated for each mouse by subtracting the body weight on the first day of dosing (baseline) from the body weight on the last day of dosing (final) and calculating the percent change from baseline body weight: [=100*(Final Weight−BaselineWeight)/BaselineWeight]. Average percent body weight change was then calculated for each treatment group. Error bars represent standard error of the mean (SEM).
Food intake per mouse per day was calculated based on food intake per cage. Mean food intake for each treatment group was then calculated weighted by the number of mice per cage. Similarly, water intake per mouse per day was calculated based on water intake per cage. Mean water intake for each treatment group was then calculated weighted by the number of mice per cage.
In both phase 1 and 2 studies, the drugs were administered through the water given to the mice. The concentration of each drug in the water is provided below:
Diethylstilbestrol: 2 mg/500 mL (1 mg/kg/day)
Raloxifene: 20 mg/500 mL (10 mg/kg/day)
Tamoxifen: 4 mg/500 mL (2 mg/kg/day)
Clomiphene: 10 mg/500 mL (5 mg/kg/day)
Hexestrol: 4 mg/500 mL (2 mg/kg/day)
A mouse typically drinks about 5 mL of water a day.
Phase 1 (Prevention of Weight Gain in Lean Mice)

[3] = Example 4: 8 week weight loss experiment in obese mice, compounds via drinking water; type: in vivo, Male C57BL6/J mice; details: obese mice on high-fat diet, 8 weeks, most compounds 0.5 and 2.5 mg/kg/day, hexestrol 0.125 to 2 mg/kg/day
Protocol: An 8 week experiment was performed to investigate the ability of various estrogen modulating compounds to induce weight loss in obese mice. Male C57BL6/J mice were placed on a high fat diet for approximately 12 weeks prior to the study and initiated in the experiment at 18 weeks of age. Obese mice were allocated into cohorts of 6 mice per compound and housed at a density of 3 per cage. Over 8 weeks, mice were placed on a high-fat diet ad libitum and compounds were provided via drinking water. Most compounds were assigned to two treatment groups with doses of 0.5 mg/kg/day and 2.5 mg/kg/day. Hexestrol was assigned to 5 treatment groups ranging between 0.125 mg/kg/day and 2 mg/kg/day. Weight measurements of each mouse were taken once per week over 8 weeks.

[4] = Example 3: oral glucose tolerance test (OGTT) in obese mice after 8 weeks of treatment; type: in vivo, male C57BL6/J mice; details: hexestrol water treated mice, 1 mg/kg/day, 1 g glucose/kg oral
Protocol: as §1, §2

[5] = Example 3: intraperitoneal glucose tolerance test (IPGTT) in obese mice after 8 weeks of treatment; type: in vivo, male C57BL6/J mice; details: hexestrol water treated mice, 1 mg/kg/day
Protocol: as §1, §2

[6] = Example 1 Phase 2: weight loss in obese mice, drug via drinking water for 8 weeks; type: in vivo, Male C57BL6/J mice
Protocol: as §3
After a 1 week acclimation, the mice were grouped into cohorts of 6 mice each. 6 DIO (diet induced obesity) and 6 lean C57BL6/J mice were used as naïve controls. Each drug was administered via drinking water for 8 weeks. […] Water intake, food intake, and body weights were recorded weekly. […]
Body weight change was calculated for each mouse by subtracting the body weight on the first day of dosing (baseline) from the body weight on the last day of dosing (final) and calculating the percent change from baseline body weight: [=100*(Final Weight−BaselineWeight)/BaselineWeight]. Average percent body weight change was then calculated for each treatment group. […]
Food intake per mouse per day was calculated based on food intake per cage. Mean food intake for each treatment group was then calculated weighted by the number of mice per cage. Similarly, water intake per mouse per day was calculated based on water intake per cage. […]

Row | Structure (SMILES) | body weight in comparison to controls ([1]; feed treatment group) | body weight in comparison to controls ([1]; water treatment group) | lean mouse body weight accumulation over the 8 week period [2] | fat tissue mass (NMR body composition analysis) ([1]; feed treated mice) | body weight in comparison to the control group [3] | other results
1 | O=C(c1ccc(OCCN2CCCCC2)cc1)c1c(-c2ccc(O)cc2)sc2cc(O)ccc12 [raloxifene] | significant reduction | significant reduction | significant decrease |  |  | 
2 | CC/C(=C(/CC)c1ccc(O)cc1)c1ccc(O)cc1 [diethylstilbestrol] |  |  | significant decrease |  |  | 
3 | CC/C(=C(\c1ccccc1)c1ccc(OCCN(C)C)cc1)c1ccccc1 [tamoxifen] | significant reduction | significant reduction | significant decrease | significant decrease |  | fat tissue mass (NMR body composition analysis) ([1]; water treated mice): significant decrease
4 | CN(C)CCOc1ccc(/C(=C(/CCCl)c2ccccc2)c2ccccc2)cc1 [toremifene] |  |  |  |  | significant reduction | 
5 | C[C@]12CC[C@@H]3c4ccc(O)cc4CC[C@H]3[C@@H]1CC[C@@H]2O [17β-estradiol] |  |  |  |  | significant reduction | 
6 | CC[C@H](c1ccc(O)cc1)[C@@H](CC)c1ccc(O)cc1 [hexestrol] | significant reduction | significant reduction | significant decrease | significant decrease | significant reduction | body weight reduction from controls ([1]; feed treatment group): 31.7±4.5%; body weight reduction from controls ([1]; water treatment group): 30.8±9.7%; fat tissue mass (NMR body composition analysis) ([1]; water treated mice): significant decrease; increase of serum glucose concentration upon an oral dose of glucose (OGTT) ([4]; in comparison to controls): increases to a lesser amount; time at which serum glucose returns back to baseline (OGTT) ([4]; post-dose): ≤ 90 min; serum glucose concentration upon injection of the glucose solution (IPGTT) ([5]; 1 g glucose/kg intraperitoneal, up to 90 minutes post-injection): remains static; starting serum glucose concentration (IPGTT) ([5]; pre-injection, in comparison to controls): significantly lower; reduction of body weight accumulation from control mice ([2]; 8 weeks, hexestrol 2 mg/kg/day in drinking water): 35.0±11.3%
7 | CCN(CC)CCOc1ccc(C(=C(Cl)c2ccccc2)c2ccccc2)cc1 [clomiphene] | significant reduction | significant reduction | significant decrease | significant decrease |  | change in body weight ([6]; 8 weeks, clomiphene 5 mg/kg/day in drinking water): significant; fat tissue mass (NMR body composition analysis) ([6]; after 8 weeks, in comparison to control mice): reduction in fat tissue mass
8 | C/C=C(/C(=C/C)c1ccc(O)cc1)c1ccc(O)cc1 [Dienestrol, dienestrol] |  |  |  |  | significant reduction | 
